The results in this text go back to publication PMC12316734, “Lipase Activation by Poly(Methyl Methacrylate) in Dispersed Solution: Mechanistic Insights by Fluorescence Spectroscopy” (Applied Biochemistry and Biotechnology, 2025).

Molecules are shown by their SMILES.

The target in this experiment is T1, Bacillus subtilis lipase A (BSLA WT) (Bacillus subtilis, UniProt P37957).
T1 construct: gene estA
Nature of the experiment: fluorogenic hydrolysis assay. The class given is biochemical. Conditions: 500 nM enzyme, 20 °C; W42C purified by cation exchange.

For the compound `CCCC(=O)Oc1ccc2c(C)cc(=O)oc2c1` [4-methylumbelliferyl butyrate], the fluorogenic hydrolysis assay entry was “The kinetic effect of PMMA on BSLA WT and W42C was found to be identical”.
